Results as given in patent publication US11051515B2, “3-acyl-benzamides and their use as herbicides” (Bayer Aktiengesellschaft, priority 2017, dated 2021).

Key:
PHBPU [1] = assay: Pre-emergence action against PHBPU; format: in vivo, Pharbitis purpurea; settings: Dosage 320 g/ha, pre-emergence
Outline: (§1)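 Seeds sown in sandy loam in wood-fiber pots and covered with soil. Greenhouse growth; visual damage scored after 3 weeks versus untreated controls (100% = dead, 0% = like control).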

VIOTR [2] = assay: Post-emergence action against VIOTR; format: in vivo, Viola tricolor; settings: post-emergence, dosage 80 g/ha
Outline: (§2)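 Weeds grown in sandy loam in greenhouse, treated at one-leaf stage (2–3 weeks after sowing) with WP or EC formulations sprayed as aqueous suspension/emulsion at 600 to […] water with 0.2% wetting agent. Visual rating after about 3 weeks versus untreated controls, as % herbicidal action (100% = plants dead, 0% = like control).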

POLCO [3] = assay: Pre-emergence action against POLCO; format: in vivo, Polygonum convolvulus; settings: Dosage 320 g/ha, pre-emergence
Outline: as §1

ECHCG [4] = assay: Post-emergence action against ECHCG; format: in vivo, Echinochloa crus-galli; settings: post-emergence, dosage 80 g/ha, visual assessment about 3 weeks after treatment vs untreated controls
Outline: as §2

ALOMY [5] = assay: Post-emergence action against ALOMY; format: in vivo, Alopecurus myosuroides; settings: Dosage 80 g/ha, post-emergence
Outline: as §2

AMARE [6] = assay: Pre-emergence action against AMARE; format: in vivo, Amaranthus retroflexus; settings: pre-emergence, dosage 320 g/ha, scored visually after 3 weeks vs untreated controls
Outline: as §1

MATIN [7] = assay: Pre-emergence action against MATIN; format: in vivo, Matricaria inodora; settings: Dosage 320 g/ha, pre-emergence
Outline: as §1

AVEFA [8] = assay: Post-emergence action against AVEFA; format: in vivo, Avena fatua; settings: post-emergence, dosage 80 g/ha, visual assessment about 3 weeks after treatment vs untreated controls
Outline: as §2

AVEFA [9] = assay: Pre-emergence action against AVEFA; format: in vivo, Avena fatua; settings: dosage 320 g/ha, scored visually after 3 weeks vs untreated controls
Outline: as §1

ABUTH [10] = assay: Post-emergence action against ABUTH; format: in vivo, Abutilon theophrasti; settings: post-emergence, dosage 80 g/ha, visual assessment about 3 weeks after treatment vs untreated controls
Outline: as §2

POLCO [11] = assay: Post-emergence action against POLCO; format: in vivo, Polygonum convolvulus; settings: post-emergence, dosage 80 g/ha
Outline: as §2

SETVI [12] = assay: Pre-emergence action against SETVI; format: in vivo, Setaria viridis; settings: pre-emergence, dosage 320 g/ha, scored visually after 3 weeks vs untreated controls
Outline: as §1

ALOMY [13] = assay: Pre-emergence action against ALOMY; format: in vivo, Alopecurus myosuroides; settings: dosage 320 g/ha; pre-emergence; scored visually after 3 weeks vs untreated controls; 100% = plants have died, 0% = like control plants
Outline: as §1

PHBPU [14] = assay: Post-emergence action against PHBPU; format: in vivo, Pharbitis purpurea; settings: post-emergence, dosage 80 g/ha
Outline: as §2

AMARE [15] = assay: Post-emergence action against AMARE; format: in vivo, Amaranthus retroflexus; settings: post-emergence, dosage 80 g/ha, visual assessment about 3 weeks after treatment vs untreated controls
Outline: as §2

STEME [16] = assay: Post-emergence action against STEME; format: in vivo, Stellaria media; settings: post-emergence, dosage 80 g/ha
Outline: as §2

STEME [17] = assay: Pre-emergence action against STEME; format: in vivo, Stellaria media; settings: Dosage 320 g/ha, pre-emergence
Outline: as §1

VIOTR [18] = assay: Pre-emergence action against VIOTR; format: in vivo, Viola tricolor; settings: Dosage 320 g/ha, pre-emergence
Outline: as §1

MATIN [19] = assay: Post-emergence action against MATIN; format: in vivo, Matricaria inodora; settings: post-emergence, dosage 80 g/ha, visual assessment about 3 weeks after treatment vs untreated controls
Outline: as §2

ABUTH [20] = assay: Pre-emergence action against ABUTH; format: in vivo, Abutilon theophrasti; settings: pre-emergence, dosage 320 g/ha, scored visually after 3 weeks vs untreated controls
Outline: as §1

LOLMU = assay: Pre-emergence action against LOLMU; format: in vivo, Lolium multiflorum; settings: dosage 320 g/ha, scored visually after 3 weeks vs untreated controls
Description: Seeds of monocotyledonous and dicotyledonous weed plants and crop plants are laid out in sandy loam soil in wood-fiber pots and covered with soil. The compounds of the invention, formulated in the form of wettable powders (WP) or as emulsion concentrates (EC), are then applied to the surface of the covering soil in the form of an aqueous suspension or emulsion at a water application rate equating to […], with addition of 0.2% wetting agent. After the treatment, the pots are placed in a greenhouse and kept under good growth conditions for the trial plants. The damage to the test plants is scored visually after a test period of 3 weeks by comparison with untreated controls (herbicidal activity in percent (%): 100% activity=the plants have died, 0% activity=like control plants).

ECHCG [21] = assay: Pre-emergence action against ECHCG; format: in vivo, Echinochloa crus-galli; settings: pre-emergence, dosage 320 g/ha, scored visually after 3 weeks vs untreated controls
Outline: as §1

VERPE [22] = assay: Post-emergence action against VERPE; format: in vivo, Veronica persica; settings: dosage 80 g/ha
Outline: as §2

CYPES [23] = assay: Pre-emergence action against CYPES; format: in vivo, Cyperus esculentus; settings: pre-emergence, dosage 320 g/ha, scored visually after 3 weeks vs untreated controls
Outline: as §1

VERPE [24] = assay: Pre-emergence action against VERPE; format: in vivo, Veronica persica; settings: Dosage 320 g/ha, pre-emergence
Outline: as §1

SETVI [25] = assay: Post-emergence action against SETVI; format: in vivo, Setaria viridis; settings: post-emergence, dosage 80 g/ha, visual assessment about 3 weeks after treatment vs untreated controls
Outline: as §2

CYPES [26] = assay: Post-emergence action against CYPES; format: in vivo, Cyperus esculentus; settings: post-emergence, dosage 80 g/ha, visual assessment about 3 weeks after treatment vs untreated controls
Outline: as §2

Structure (SMILES) | Pre-emergence action against PHBPU (PHBPU [1]) [%] | Post-emergence action against VIOTR (VIOTR [2]) | Post-emergence action against ECHCG (herbicidal action in percent) (ECHCG [4]) [%] | Pre-emergence action against AMARE (herbicidal activity) (AMARE [6]) [%] | Pre-emergence action against MATIN (MATIN [7]) [%] | Pre-emergence action against AVEFA (herbicidal activity) (AVEFA [9]) [%] | Post-emergence action against ABUTH (herbicidal action in percent) (ABUTH [10]) [%] | SETVI (Table B8, pre-emergence herbicidal activity) (SETVI [12]) [%] | Pre-emergence action against ALOMY (herbicidal activity in percent) (ALOMY [13]) [%] | Post-emergence action against PHBPU (PHBPU [14]) | Post-emergence action against STEME (STEME [16]) | Pre-emergence action against STEME (STEME [17]) [%] | Pre-emergence action against VIOTR (VIOTR [18]) [%] | Post-emergence action against MATIN (herbicidal action in percent) (MATIN [19]) [%] | Pre-emergence action against ABUTH (herbicidal activity) (ABUTH [20]) [%] | Pre-emergence action against LOLMU (herbicidal activity) (LOLMU) [%] | Pre-emergence action against ECHCG (herbicidal activity) (ECHCG [21]) [%] | Pre-emergence action against CYPES (herbicidal activity) (CYPES [23]) [%] | Pre-emergence action against VERPE (VERPE [24]) [%] | Post-emergence action against SETVI (herbicidal action in percent) (SETVI [25]) [%] | other results
CCn1nnnc1NC(=O)c1ccc(C(F)(F)F)c(C(=O)C2CC2)c1OC [2-50] | 100 | 100 | 100 | 100 | 100 | 100 | 90 | 100 | 100 | 100 | 100 | 100 | 100 | 100 | 100 | 100 | 100 | 100 | 100 | 100 | Pre-emergence action against POLCO (POLCO [3]): 80%; Post-emergence action against ALOMY (ALOMY [5]): 90%; Post-emergence action against AVEFA (herbicidal action in percent) (AVEFA [8]): 90%; Post-emergence action against POLCO (POLCO [11]): 90; Post-emergence action against AMARE (herbicidal action in percent) (AMARE [15]): 100%; Post-emergence action against VERPE (VERPE [22]): 90
CCn1nnnc1NC(=O)c1ccc(SC)c(C(=O)C2CC2)c1Cl [2-123] | – | 100 | 100 | 100 | 100 | 80 | 100 | 100 | 100 | 100 | 100 | 100 | 100 | 100 | 100 | 90 | 100 | 90 | 100 | 100 | Post-emergence action against ALOMY (ALOMY [5]): 90%; Post-emergence action against AVEFA (herbicidal action in percent) (AVEFA [8]): 100%; Post-emergence action against AMARE (herbicidal action in percent) (AMARE [15]): 100%; Post-emergence action against VERPE (VERPE [22]): 100
CCn1nnnc1NC(=O)c1ccc(C(F)(F)F)c(C(C)=O)c1Br [2-195] | 80 | 100 | 90 | 100 | 100 | 90 | 80 | 100 | 90 | 90 | 90 | 100 | 100 | 90 | 100 | 80 | 100 | 100 | 100 | 90 | Post-emergence action against CYPES (herbicidal action in percent) (CYPES [26]): 90%; Pre-emergence action against POLCO (POLCO [3]): 90%; Post-emergence action against POLCO (POLCO [11]): 90
CCn1nnnc1NC(=O)c1ccc(C(F)(F)F)c(C(C)=O)c1SC [2-58] | 80 | 100 | 90 | 100 | 100 | 90 | 100 | 100 | 100 | 100 | 100 | 90 | 100 | 100 | 100 | 90 | 100 | 100 | 100 | 100 | Post-emergence action against CYPES (herbicidal action in percent) (CYPES [26]): 90%; Pre-emergence action against POLCO (POLCO [3]): 100%; Post-emergence action against POLCO (POLCO [11]): 90; Post-emergence action against AMARE (herbicidal action in percent) (AMARE [15]): 100%; Post-emergence action against VERPE (VERPE [22]): 100
